# Measurements: patent US9458153B2, “Dihydroquinolizinones for the treatment and prophylaxis of hepatitis B virus infection” (Hoffmann-La Roche Inc., priority 2014, dated 2016)
# Counter-ions that a name gives are not always drawn.
# Test system: HBsAg
# Experiment: HBsAg assay (chemiluminescence immunoassay of secreted HBsAg in HepG2.2.15 culture supernatant)
# Type: cell-based, HBV
# Details: HepG2.2.15 cells, CLIA kit
# Outline: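 IC50 came from dose-response curves of HBsAg in culture supernatant, measured semi-quantitatively by chemiluminescent immunoassay. The HBV-producing HepG2.2.15 line was dosed in duplicate with a three-fold compound dilution series, with DMSO at 1% final and DMSO alone as the no-drug control.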
# [1] = Hepatitis B virus, HepG2.2.15, HBsAg secretion reduced by 50% vs no drug control
# [2] = HBsAg secretion reduced by 50% vs no drug control
# [3] = HBsAg secretion reduced by 50% vs no drug control, hydrochloride
Compound,IC50 [1] [nM],IC50 [2] [nM],also measured
"CCC1Cc2cc(OCCn3ccnc3)c(OC)cc2-c2cc(=O)c(C(=O)O)cn21 (centres unmarked) [Example 26, 6-ethyl-9-(2-imidazol-1-ylethoxy)-10-methoxy-2-oxo-6,7-dihydrobenzo[a]quinolizine-3-carboxylic acid]",1650,–,–
"CCC1Cc2cc(OC)c(C3CC3)cc2-c2cc(=O)c(C(=O)O)cn21 (centres unmarked) [Example 89, 10-cyclopropyl-6-ethyl-9-methoxy-2-oxo-6,7-dihydrobenzo[a]quinolizine-3-carboxylic acid]",–,8,–
"COc1cc2c(cc1OCCCCCO)CC(C(C)(C)C)n1cc(C(=O)O)c(=O)cc1-2 (single isomer, unassigned; (+)) [Example 153, (+)-6-tert-butyl-9-(5-hydroxypentoxy)-10-methoxy-2-oxo-6,7-dihydrobenzo[a]quinolizine-3-carboxylic acid]",–,1,–
"CC[C@H]1Cc2cc(OC)c(OC)cc2-c2cc(=O)c(C(=O)O)cn21 [Example 72, (6S)-(−)-6-ethyl-9,10-dimethoxy-2-oxo-6,7-dihydrobenzo[a]quinolizine-3-carboxylic acid]",12000,–,–
"COc1cc2c(cc1OCCCCCCCCNC(=O)OC(C)(C)C)CC(C(C)(C)C)n1cc(C(=O)O)c(=O)cc1-2 (single isomer, unassigned; (-)) [Example 169, (−)-9-[8-(tert-butoxycarbonylamino)octoxy]-6-tert-butyl-10-methoxy-2-oxo-6,7-dihydrobenzo[a]quinolizine-3-carboxylic acid]",–,190,–
"COc1cc2c(cc1OCCCn1cccn1)CC(C(C)(C)C)n1cc(C(=O)O)c(=O)cc1-2 (centres unmarked) [Example 216, 6-tert-butyl-10-methoxy-2-oxo-9-(3-pyrazol-1-ylpropoxy)-6,7-dihydrobenzo[a]quinolizine-3-carboxylic acid]",6,–,–
"COc1cc2c(cc1OCC(F)F)CC(C(C)C)n1cc(C(=O)O)c(=O)cc1-2 (single isomer, unassigned; (+)) [Example 142, (+)-9-(2,2-difluoroethoxy)-6-isopropyl-10-methoxy-2-oxo-6,7-dihydrobenzo[a]quinolizine-3-carboxylic acid]",–,4,–
"COc1cc2c(cc1OCCCCCNC(=O)OC(C)(C)C)CC(C(C)(C)C)n1cc(C(=O)O)c(=O)cc1-2 (centres unmarked) [Example 172, 9-[5-(tert-butoxycarbonylamino)pentoxy]-6-tert-butyl-10-methoxy-2-oxo-6,7-dihydrobenzo[a]quinolizine-3-carboxylic acid]",2,–,–
"COc1cc2c(cc1OCCCCCCCCN)CC(C(C)(C)C)n1cc(C(=O)O)c(=O)cc1-2 (single isomer, unassigned; (-)) [Example 171, (−)-9-(8-aminooctoxy)-6-tert-butyl-10-methoxy-2-oxo-6,7-dihydrobenzo[a]quinolizine-3-carboxylic acid hydrochloride]",–,–,IC50 [3]: 420 nM
"COc1cc2c(cc1OCc1ccccc1)CC(C)n1cc(C(=O)O)c(=O)cc1-2 (centres unmarked) [Example 1, 9-benzyloxy-10-methoxy-6-methyl-2-oxo-6,7-dihydrobenzo[a]quinolizine-3-carboxylic acid]",13,–,–
"COc1cc2c(cc1OC)C(C)Cn1cc(C(=O)O)c(=O)cc1-2 (centres unmarked) [Example 69, 9,10-dimethoxy-7-methyl-2-oxo-6,7-dihydrobenzo[a]quinolizine-3-carboxylic acid]",1300,–,–
"CCCC1Cc2cc(OC)c(OC)cc2-c2cc(=O)c(C(=O)O)cn21 (centres unmarked) [Example 96, 9,10-dimethoxy-2-oxo-6-propyl-6,7-dihydrobenzo[a]quinolizine-3-carboxylic acid]",49,–,–
"COCCCOc1cc2c(cc1OC)-c1cc(=O)c(C(=O)O)cn1C(C(C)(C)C)C2 (single isomer, unassigned; (-)) [Example 133, (−)-6-tert-butyl-10-methoxy-9-(3-methoxypropoxy)-2-oxo-6,7-dihydrobenzo[a]quinolizine-3-carboxylic acid]",–,330,–
"CCC1Cc2cc(OCCCC#N)c(OC)cc2-c2cc(=O)c(C(=O)O)cn21 (centres unmarked) [Example 52, 9-(3-cyanopropoxy)-6-ethyl-10-methoxy-2-oxo-6,7-dihydrobenzo[a]quinolizine-3-carboxylic acid]",170,–,–
"CC[C@@H]1[C@@H](C)c2cc(OCCOC)c(Cl)cc2-c2cc(=O)c(C(=O)O)cn21 (relative stereo) [Example 212A, (6R*, 7S*)-10-chloro-6-ethyl-9-(2-methoxyethoxy)-7-methyl-2-oxo-6,7-dihydrobenzo[a]quinolizine-3-carboxylic acid]",330,–,–
"COc1cc2c(cc1OC)-c1cc(=O)c(C(=O)O)cn1C(CC(F)(F)F)C2 (centres unmarked) [Example 198, 9,10-dimethoxy-2-oxo-6-(2,2,2-trifluoroethyl)-6,7-dihydrobenzo[a]quinolizine-3-carboxylic acid]",230,–,–

Compound,IC50 [1] [nM],IC50 [2] [nM],also measured
"COc1cc2c(cc1OCCCS(C)(=O)=O)CC(C(C)(C)C)n1cc(C(=O)O)c(=O)cc1-2 (single isomer, unassigned; (-)) [Example 188, (−)-6-tert-butyl-10-methoxy-9-(3-methylsulfonylpropoxy)-2-oxo-6,7-dihydrobenzo[a]quinolizine-3-carboxylic acid]",–,220,–
"C#CCOc1cc2c(cc1OC)-c1cc(=O)c(C(=O)O)cn1C(CC)C2 (centres unmarked) [Example 17, 6-ethyl-10-methoxy-2-oxo-9-prop-2-ynoxy-6,7-dihydrobenzo[a]quinolizine-3-carboxylic acid]",190,–,–
"COc1cc2c(cc1OCCCN1CCOCC1)CC(C(C)(C)C)n1cc(C(=O)O)c(=O)cc1-2 (centres unmarked) [Example 192, 6-tert-butyl-10-methoxy-9-(3-morpholinopropoxy)-2-oxo-6,7-dihydrobenzo[a]quinolizine-3-carboxylic acid hydrochloride]",–,–,IC50 [3]: 10 nM
"CC1Cc2cccc(Br)c2-c2cc(=O)c(C(=O)O)cn21 (centres unmarked) [Example 60, 11-bromo-6-methyl-2-oxo-6,7-dihydrobenzo[a]quinolizine-3-carboxylic acid]",1240,–,–
"CCOc1cc2c(cc1OCC)-c1cc(=O)c(C(=O)O)cn1C(C)C2 (centres unmarked) [Example 74, 9,10-diethoxy-6-methyl-2-oxo-6,7-dihydrobenzo[a]quinolizine-3-carboxylic acid]",140,–,–
"CCC1Cc2cc(OCCOC)c(OC)cc2-c2cc(=O)c(C(=O)O)cn21 (single isomer, unassigned; (+)) [Example 28, (+)-6-ethyl-10-methoxy-9-(2-methoxyethoxy)-2-oxo-6,7-dihydrobenzo[a]quinolizine-3-carboxylic acid]",–,29,–
"COc1cc2c(cc1OCCCn1cncn1)CC(C(C)(C)C)n1cc(C(=O)O)c(=O)cc1-2 (centres unmarked) [Example 217, 6-tert-butyl-10-methoxy-2-oxo-9-[3-(1,2,4-triazol-1-yl)propoxy]-6,7-dihydrobenzo[a]quinolizine-3-carboxylic acid]",34,–,–
"COc1cc2c(cc1OCCCS(C)(=O)=O)CC(C(C)(C)C)n1cc(C(=O)O)c(=O)cc1-2 (single isomer, unassigned; (+)) [Example 187, (+)-6-tert-butyl-10-methoxy-9-(3-methylsulfonylpropoxy)-2-oxo-6,7-dihydrobenzo[a]quinolizine-3-carboxylic acid]",–,13,–
"COCCCOc1cc2c(c(F)c1F)-c1cc(=O)c(C(=O)O)cn1C(C(C)C)C2 (single isomer, unassigned; (-)) [Example 215, (−)-10,11-difluoro-6-isopropyl-9-(3-methoxypropoxy)-2-oxo-6,7-dihydrobenzo[a]quinolizine-3-carboxylic acid]",–,1140,–
"CCC1Cc2cc(OCCOCCOC)c(OC)cc2-c2cc(=O)c(C(=O)O)cn21 (centres unmarked) [Example 19, 6-ethyl-10-methoxy-9-[2-(2-methoxyethoxyl)ethoxy]-2-oxo-6,7-dihydrobenzo[a]quinolizine-3-carboxylic acid]",250,–,–
"COc1cc2c(cc1OCCCCCCCCNC(=O)OC(C)(C)C)CC(C(C)(C)C)n1cc(C(=O)O)c(=O)cc1-2 (centres unmarked) [Example 167, 9-[8-(tert-butoxycarbonylamino)octoxy]-6-tert-butyl-10-methoxy-2-oxo-6,7-dihydrobenzo[a]quinolizine-3-carboxylic acid]",–,11,–
"COc1ccc2c(c1Cl)CC(C)n1cc(C(=O)O)c(=O)cc1-2 (centres unmarked) [Example 82, 8-chloro-9-methoxy-6-methyl-2-oxo-6,7-dihydrobenzo[a]quinolizine-3-carboxylic acid]",5270,–,–
"CCOCCOc1cc2c(cc1OC)-c1cc(=O)c(C(=O)O)cn1C(CC)C2 (single isomer, unassigned; (-)) [Example 44, (−)-9-(2-ethoxyethoxy)-6-ethyl-10-methoxy-2-oxo-6,7-dihydrobenzo[a]quinolizine-3-carboxylic acid]",–,5460,–
"COCCOc1cc2c(cc1OC)-c1cc(=O)c(C(=O)O)cn1C(C1(C)CC1)C2 (single isomer, unassigned; (+)) [Example 135, (+)-10-methoxy-9-(2-methoxyethoxy)-6-(1-methylcyclopropyl)-2-oxo-6,7-dihydrobenzo[a]quinolizine-3-carboxylic acid]",–,4,–
"COc1cc2c(cc1OCCCCCCCCNC(=O)OC(C)(C)C)CC(C(C)(C)C)n1cc(C(=O)O)c(=O)cc1-2 (single isomer, unassigned; (+)) [Example 168, (+)-9-[8-(tert-butoxycarbonylamino)octoxy]-6-tert-butyl-10-methoxy-2-oxo-6,7-dihydrobenzo[a]quinolizine-3-carboxylic acid]",–,6,–
"COc1cc2c(cc1OCC(C)(C)CO)CC(C(C)C)n1cc(C(=O)O)c(=O)cc1-2 (single isomer, unassigned; (-)) [Example 146, (−)-9-(3-hydroxy-2,2-dimethyl-propoxy)-6-isopropyl-10-methoxy-2-oxo-6,7-dihydrobenzo[a]quinolizine-3-carboxylic acid]",–,520,–
